Here are results for twelve compounds from US6706740B2, “Fungicidal heterocyclic aromatic amides and their compositions, methods of use and preparation” (Dow AgroSciences LLC, priority 1999, dated 2004).

Experiment [1] concerns Rhizoctonia solani (RHIZSO). As to the kind of experiment: microbe, parasite or virus in culture. Format: cell-based. The settings on record: Rhizoctonia solani, read-out: RHIZSO in vitro Growth Inhibition.
For experiment [2], the system named is Leptosphaeria nodorum—LEPTNO. Put plainly: Glume Blotch of Wheat, in vivo whole plant, 24 Hour Protectant. The following applies: wheat plants sprayed at 100 ppm, inoculated after 24 hours, control of fungal infection vs untreated plants; for pest or weed control at 100 ppm: Leptosphaeria, read-out: LEPTNO in vivo 1 Day Protectant.
Experiment [3] relates to Magnaporthe grisea (Pyricularia oryzae—PYRIOR). Put plainly: microbe, parasite or virus in culture. In kind it is cell-based. The following applies: Pyricularia oryzae, read-out: PYRIOR in vitro Growth Inhibition.
Experiment [4] deals with Stagonospora nodorum (Leptosphaeria nodorum—LEPTNO). Put plainly: In vitro fungal growth inhibition, Stagonospora nodorum (LEPTNO). Format: cell-based. The following applies: Leptosphaeria; 25 ppm in the growth medium; read-out: LEPTNO in vitro Growth Inhibition.
A further experiment deals with Septoria tritici—SEPTTR. As to the kind of experiment: Leaf Blotch of Wheat, in vivo whole plant, 24 Hour Protectant. The following applies: wheat plants sprayed at 100 ppm, inoculated after 24 hours, control of fungal infection vs untreated plants; for pest or weed control at 100 ppm: Zymoseptoria tritici, 24 h, read-out: SEPTTR in vivo 1 Day Protectant.
Another experiment deals with Erysiphe graminis—ERYSGT. As to the kind of experiment: Powdery Mildew of Wheat, in vivo whole plant, 24 Hour Protectant. The settings on record: wheat plants sprayed at 100 ppm, inoculated after 24 hours, control of fungal infection vs untreated plants; for pest or weed control at 100 ppm: Erysiphe, read-out: ERYSGT in vivo 1 Day Protectant.
The subject of another experiment is Ustilago maydis (USTIMA). As to the kind of experiment: microbe, parasite or virus in culture. In kind it is cell-based. The settings on record: Mycosarcoma maydis, read-out: USTIMA in vitro Growth Inhibition.
Experiment [5] concerns Phytophthora infestans (PHYTIN). As to the kind of experiment: microbe, parasite or virus in culture. Format: cell-based. The following applies: Phytophthora infestans, read-out: PHYTIN in vitro Growth Inhibition.
In experiment [6] the test system is Mycosphaerella graminicola (Septoria tritici—SEPTTR). Put plainly: In vitro fungal growth inhibition, Mycosphaerella graminicola (SEPTTR). Format: cell-based. The settings on record: Zymoseptoria tritici; 25 ppm in the growth medium; read-out: SEPTTR in vitro Growth Inhibition.
In experiment [7] the test system is Puccinia recondita—PUCCRT. As to the kind of experiment: Brown Rust of Wheat, in vivo whole plant, 24 Hour Protectant. The settings on record: wheat plants sprayed at 100 ppm, inoculated after 24 hours, control of fungal infection vs untreated plants; for pest or weed control at 100 ppm: Puccinia, read-out: PUCCRT in vivo 1 Day Protectant.
For experiment [8], the system named is Phytophthora infestans—PHYTIN. As to the kind of experiment: whole plant or invertebrate. In kind it is in vivo. The settings on record: Phytophthora, in Solanum lycopersicum, 24 h, read-out: PHYTIN in vivo 1 Day Protectant.

Each structure is given as a SMILES string. A value given as a limit tells only on which side of the number the result lay.

As for `CC(=O)Oc1cccnc1C(=O)Nc1ccc(Oc2cccc(C(F)(F)F)c2)cc1` [Compound 570], the inhibition at 25 ppm in experiment [1] was less than 80%; in experiment [3], more than 80%; in experiment [4], less than 80%; in the experiment with Ustilago maydis (USTIMA), less than 80%; in experiment [5] it was less than 80%; in [6] it was less than 80%. Besides, the pest or weed control at 100 ppm in experiment [2] was 25 to 74%; in the experiment on Septoria tritici—SEPTTR, 25 to 74%; in experiment [7], less than 25%; in [8], less than 25%. Moreover, in the experiment on Erysiphe graminis—ERYSGT, the “ERYSGT in vivo 1 Day Protectant” value is reported as “+ +”.

With `COc1ccnc(C(=O)NC2CC(C)(C)CC(C)(C3CC3)C2)c1OC(C)=O` (stereo not drawn) [Compound 573], the inhibition at 25 ppm was less than 80% in experiment [1]; less than 80% in [3]; more than 80% in [4]; less than 80% in the experiment on Ustilago maydis (USTIMA); less than 80% in [5]; less than 80% in experiment [6]. Besides, in experiment [2], the “LEPTNO in vivo 1 Day Protectant” value is “+ +”. For the same compound, the pest or weed control at 100 ppm is 25 to 74% with Septoria tritici—SEPTTR, less than 25% with Erysiphe graminis—ERYSGT and less than 25% in experiment [8]. The “PUCCRT in vivo 1 Day Protectant” value in experiment [7] is recorded as “+ +”.

On to `COc1ccnc(C(=O)NC2CC(C)(C)CC(C)(C#N)C2)c1OC(C)=O` (stereo not drawn) [Compound 574], for which the inhibition at 25 ppm (in experiment [1]; in experiment [3]; in experiment [4]; with Ustilago maydis (USTIMA); in [5]; in [6]) was less than 80% in each case. The pest or weed control at 100 ppm in experiment [2] was 25 to 74%; with Septoria tritici—SEPTTR, 25 to 74%; in the experiment on Erysiphe graminis—ERYSGT, less than 25%; in [7], less than 25%; in experiment [8], less than 25%.

Turning to `COc1ccnc(C(=O)NC2CC(C)(C)C(=O)C(C)(C)C2)c1OC(C)=O` [Compound 575], the inhibition at 25 ppm (in experiment [1]; in [3]; in experiment [4]; in the experiment with Ustilago maydis (USTIMA); in [5]; in experiment [6]) was less than 80% throughout. Moreover, the pest or weed control at 100 ppm in experiment [2] was 25 to 74%; in the experiment with Septoria tritici—SEPTTR, 25 to 74%; in the experiment with Erysiphe graminis—ERYSGT, less than 25%; in [7], 25 to 74%; in experiment [8] it was less than 25%.

For the compound `COc1ccnc(C(=O)N[C@H]2C[C@@H](C(F)(F)F)C[C@@H](C(F)(F)F)C2)c1OC(C)=O` [Compound 576], the inhibition at 25 ppm (in experiment [1]; in [3]; in [4]; in the experiment with Ustilago maydis (USTIMA); in experiment [5]; in experiment [6]) was less than 80% throughout. The pest or weed control at 100 ppm in experiment [2] is 25 to 74%; with Septoria tritici—SEPTTR it was 25 to 74%; in the experiment on Erysiphe graminis—ERYSGT, less than 25%; in experiment [7], 25 to 74%; in experiment [8], less than 25%.

With `COc1ccnc(C(=O)N[C@@H]2C[C@@H](C(F)(F)F)C[C@@H](C(F)(F)F)C2)c1OC(C)=O` [Compound 577], the inhibition at 25 ppm (in experiment [1]; in experiment [3]; in experiment [4]; in the experiment with Ustilago maydis (USTIMA); in experiment [5]; in experiment [6]) was less than 80% each time. The pest or weed control at 100 ppm was 25 to 74% in experiment [2]; 25 to 74% in the experiment with Septoria tritici—SEPTTR; less than 25% in the experiment on Erysiphe graminis—ERYSGT; less than 25% in experiment [7]; less than 25% in [8].

As to `COc1ccnc(C(=O)NC2CC(C)(C)C=C[C@@H](C)[C@@H]2C)c1OC(C)=O` (stereo partly drawn) [Compound 578], the inhibition at 25 ppm (in [1]; in experiment [3]; in experiment [4]; with Ustilago maydis (USTIMA); in [5]; in experiment [6]) was less than 80% throughout. In addition, the pest or weed control at 100 ppm in experiment [2] was 25 to 74%; with Septoria tritici—SEPTTR, 25 to 74%; in the experiment with Erysiphe graminis—ERYSGT, less than 25%; in [7], less than 25%; in experiment [8], less than 25%.

As for `COc1ccnc(C(=O)NC2CC(C)(C)C=CC=C2C)c1OC(C)=O` (stereo not drawn) [Compound 579], the inhibition at 25 ppm (in experiment [1]; in experiment [3]; in [4]; with Ustilago maydis (USTIMA); in experiment [5]; in experiment [6]) was less than 80% each time. The pest or weed control at 100 ppm (in experiment [2]; in the experiment on Erysiphe graminis—ERYSGT; in experiment [7]; in [8]) was less than 25% in each case. Further, the “SEPTTR in vivo 1 Day Protectant” value in the experiment on Septoria tritici—SEPTTR is recorded as “+ +”.

`COc1ccnc(C(=O)NC2CC(C)(C)/C=C\CC(C)(C)C2)c1OC(C)=O` (stereo not drawn) [Compound 580]: the inhibition at 25 ppm (in experiment [1]; in experiment [3]; in experiment [4]; in the experiment on Ustilago maydis (USTIMA); in experiment [5]; in experiment [6]) was less than 80% in each case. Further, the “LEPTNO in vivo 1 Day Protectant” value in experiment [2] is reported as “+ +”. Also, the pest or weed control at 100 ppm with Septoria tritici—SEPTTR is 25 to 74%; in the experiment on Erysiphe graminis—ERYSGT it was less than 25%; in [7] it was 25 to 74%; in [8] it was less than 25%.

In the case of `COC(=O)C(COC(=O)C(C)c1ccccc1)NC(=O)c1nccc(OC)c1OC(C)=O` (stereo not drawn) [Compound 581], the inhibition at 25 ppm (in experiment [1]; in [3]; in experiment [4]; in the experiment on Ustilago maydis (USTIMA); in experiment [5]; in experiment [6]) was less than 80% in each case. Moreover, the pest or weed control at 100 ppm was 25 to 74% in experiment [2]; 25 to 74% with Septoria tritici—SEPTTR; less than 25% in the experiment on Erysiphe graminis—ERYSGT; less than 25% in experiment [7]; less than 25% in experiment [8].

`COC(=O)C(COC(=O)CCc1ccccc1)NC(=O)c1nccc(OC)c1OC(C)=O` (stereo not drawn) [Compound 583]: the inhibition at 25 ppm (in experiment [1]; in experiment [3]; in experiment [4]; with Ustilago maydis (USTIMA); in experiment [5]; in experiment [6]) was less than 80% each time. Besides, the pest or weed control at 100 ppm is 25 to 74% in [2]; less than 25% in the experiment with Septoria tritici—SEPTTR; less than 25% with Erysiphe graminis—ERYSGT; less than 25% in [7]; less than 25% in experiment [8].

For the compound `COC(=O)C(COC(=O)COCc1ccccc1)NC(=O)c1nccc(OC)c1OC(C)=O` (stereo not drawn) [Compound 585], the inhibition at 25 ppm (in experiment [1]; in experiment [3]; in [4]; with Ustilago maydis (USTIMA); in experiment [5]; in experiment [6]) was less than 80% in each case. Also, the pest or weed control at 100 ppm in experiment [2] was 25 to 74%; with Septoria tritici—SEPTTR it was 25 to 74%; in the experiment with Erysiphe graminis—ERYSGT, less than 25%; in [7] it was 25 to 74%; in [8] it was less than 25%.
